Converted amounts (≈) assume the structure as drawn.
What was measured:
Format in all cases: cell-based
[1] = tested on: Proteus morganii; test: In vitro antibacterial activity, dilution in Mueller Hinton Agar (Table I); conditions: Morganella morganii; strain Valz; Mueller Hinton Agar pH 7.4
How it was run: (§1)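 MIC read-out. Mueller Hinton medium adjusted to pH 7.4; standard test and scoring conditions.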

[2] = tested on: Salmonella; test: as above
How it was run: as §1

[3] = tested on: Escherichia coli; test: as above
How it was run: as §1

[4] = tested on: Proteus rettgeri; test: as above; conditions: Providencia rettgeri; 'Proteus rettgeri mirabilis' [sic]; Mueller Hinton Agar pH 7.4
How it was run: as §1

[5] = tested on: Candida albicans; test: In vitro Anti-Candida activity, dilutions in Sabouraud's Dextrose Agar (Table III); conditions: 48 h
Method: All the tests were carried out and (when necessary) scored under standard conditions. "MIC" means "minimum inhibitory concentration."
In vitro Anti-Candida Activity of 2-aminoalkyl-3-phenyl-
indoles of the formula I. Dilutions in Sabouraud's Dextrose
MIC (mcg/ml) after 48 hours

[6] = TYPHI, pH 7.4, B typhi, Mueller Hinton Agar pH 7.4
[7] = pH 7.4, C1 Oao, Mueller Hinton Agar pH 7.4
[8] = pH 7.4, C2 Cuban, Mueller Hinton Agar pH 7.4
[9] = pH 7.4, C2 Napc, Mueller Hinton Agar pH 7.4
[10] = pH 7.4, Salmonella ent. 1, Mueller Hinton Agar pH 7.4
[11] = pH 7.4, strain 777, Mueller Hinton Agar pH 7.4
[12] = pH 7.4, strain 1574-1, Mueller Hinton Agar pH 7.4
[13] = pH 7.4, strain 4195, Mueller Hinton Agar pH 7.4
[14] = pH 7.4, strain 10536, Mueller Hinton Agar pH 7.4
[15] = pH 7.4, strain JR66, Mueller Hinton Agar pH 7.4
[16] = strain Atkisson, after 48 hours
[17] = strain Bertrand, after 48 hours
[18] = strain Burnside, after 48 hours
[19] = strain Kenndy 2, after 48 hours
[20] = strain Kennedy 1, after 48 hours
[21] = strain Shurelli, after 48 hours

NCc1[nH]c2cc(Br)c(Cl)cc2c1-c1ccccc1 [D, 2-aminomethyl-6-bromo-5-chloro-3-phenylindole]
MIC [1]: 3 µg/mL (≈ 8.94 µM) | MIC [2, 6]: 3 µg/mL (≈ 8.94 µM) | MIC [2, 7]: 3 µg/mL (≈ 8.94 µM) | MIC [2, 8]: 3 µg/mL (≈ 8.94 µM) | MIC [2, 9]: 3 µg/mL (≈ 8.94 µM) | MIC [2, 10]: 3 µg/mL (≈ 8.94 µM) | MIC [3, 11]: 3 µg/mL (≈ 8.94 µM) | MIC [3, 12]: 3 µg/mL (≈ 8.94 µM) | MIC [3, 13]: 3 µg/mL (≈ 8.94 µM) | MIC [3, 14]: 3 µg/mL (≈ 8.94 µM) | MIC [3, 15]: 3 µg/mL (≈ 8.94 µM) | MIC [4]: 7.5 µg/mL (≈ 22.3 µM) | MIC ([5]; strain 1, after 48 hours): 150 µg/mL (≈ 447 µM) | MIC ([5]; strain 2, after 48 hours): 150 µg/mL (≈ 447 µM) | MIC ([5]; strain 3, after 48 hours): 75 µg/mL (≈ 223 µM) | MIC ([5]; strain 4, after 48 hours): 37.5 µg/mL (≈ 112 µM) | MIC ([5]; strain 5, after 48 hours): 75 µg/mL (≈ 223 µM) | MIC ([5]; strain 6, after 48 hours): 150 µg/mL (≈ 447 µM) | MIC ([5]; strain 8, after 48 hours): 150 µg/mL (≈ 447 µM) | MIC ([5]; strain 9, after 48 hours): 150 µg/mL (≈ 447 µM) | MIC ([5]; strain 29, after 48 hours): 75 µg/mL (≈ 223 µM) | MIC [5, 16]: 150 µg/mL (≈ 447 µM) | MIC [5, 17]: 150 µg/mL (≈ 447 µM) | MIC ([5]; strain Bevan, after 48 hours): 150 µg/mL (≈ 447 µM) | MIC ([5]; strain Blunden, after 48 hours): 17.5 µg/mL (≈ 52.1 µM) | MIC ([5]; strain Bognay, after 48 hours): 75 µg/mL (≈ 223 µM) | MIC ([5]; strain Boyer, after 48 hours): 150 µg/mL (≈ 447 µM) | MIC ([5]; strain Burke, after 48 hours): 150 µg/mL (≈ 447 µM) | MIC [5, 18]: 75 µg/mL (≈ 223 µM) | MIC ([5]; strain Collins, after 48 hours): 75 µg/mL (≈ 223 µM) | MIC ([5]; strain Fix, after 48 hours): 75 µg/mL (≈ 223 µM) | MIC ([5]; strain Frazier, after 48 hours): 150 µg/mL (≈ 447 µM) | MIC ([5]; strain Fulcher, after 48 hours): 75 µg/mL (≈ 223 µM) | MIC ([5]; strain Gay, after 48 hours): 150 µg/mL (≈ 447 µM) | MIC ([5]; strain Hons, after 48 hours): 150 µg/mL (≈ 447 µM) | MIC ([5]; strain Johnson, after 48 hours): 150 µg/mL (≈ 447 µM) | MIC [5, 19]: 150 µg/mL (≈ 447 µM) | MIC [5, 20]: 17.5 µg/mL (≈ 52.1 µM) | MIC ([5]; strain Lehtman, after 48 hours): 150 µg/mL (≈ 447 µM) | MIC ([5]; strain Lusk, after 48 hours): 75 µg/mL (≈ 223 µM) | MIC ([5]; strain Merkel, after 48 hours): 75 µg/mL (≈ 223 µM) | MIC ([5]; strain Newcomb, after 48 hours): 17.5 µg/mL (≈ 52.1 µM) | MIC ([5]; strain Sherod, after 48 hours): 150 µg/mL (≈ 447 µM) | MIC [5, 21]: 150 µg/mL (≈ 447 µM) | MIC ([5]; strain Sparks, after 48 hours): 150 µg/mL (≈ 447 µM) | MIC ([5]; strain Tyner, after 48 hours): 75 µg/mL (≈ 223 µM)

NCc1[nH]c2ccc(Cl)cc2c1-c1ccc(Cl)cc1Cl [E]
MIC [1]: 17.5 µg/mL (≈ 53.7 µM) | MIC [2, 6]: 3 µg/mL (≈ 9.21 µM) | MIC [2, 7]: 3 µg/mL (≈ 9.21 µM) | MIC [2, 8]: 3 µg/mL (≈ 9.21 µM) | MIC [2, 9]: 3 µg/mL (≈ 9.21 µM) | MIC [2, 10]: 3 µg/mL (≈ 9.21 µM) | MIC [3, 11]: 3 µg/mL (≈ 9.21 µM) | MIC [3, 12]: 3 µg/mL (≈ 9.21 µM) | MIC [3, 13]: 3 µg/mL (≈ 9.21 µM) | MIC [3, 14]: 3 µg/mL (≈ 9.21 µM) | MIC [3, 15]: 3 µg/mL (≈ 9.21 µM) | MIC [4]: 17.5 µg/mL (≈ 53.7 µM) | MIC ([5]; strain 1, after 48 hours): 37.5 µg/mL (≈ 115 µM) | MIC ([5]; strain 2, after 48 hours): 37.5 µg/mL (≈ 115 µM) | MIC ([5]; strain 3, after 48 hours): 37.5 µg/mL (≈ 115 µM) | MIC ([5]; strain 4, after 48 hours): 17.5 µg/mL (≈ 53.7 µM) | MIC ([5]; strain 5, after 48 hours): 17.5 µg/mL (≈ 53.7 µM) | MIC ([5]; strain 6, after 48 hours): 37.5 µg/mL (≈ 115 µM) | MIC ([5]; strain 8, after 48 hours): 37.5 µg/mL (≈ 115 µM) | MIC ([5]; strain 9, after 48 hours): 37.5 µg/mL (≈ 115 µM) | MIC ([5]; strain 29, after 48 hours): 37.5 µg/mL (≈ 115 µM) | MIC [5, 16]: 37.5 µg/mL (≈ 115 µM) | MIC [5, 17]: 37.5 µg/mL (≈ 115 µM) | MIC ([5]; strain Bevan, after 48 hours): 37.5 µg/mL (≈ 115 µM) | MIC ([5]; strain Blunden, after 48 hours): 37.5 µg/mL (≈ 115 µM) | MIC ([5]; strain Bognay, after 48 hours): 37.5 µg/mL (≈ 115 µM) | MIC ([5]; strain Boyer, after 48 hours): 37.5 µg/mL (≈ 115 µM) | MIC ([5]; strain Burke, after 48 hours): 37.5 µg/mL (≈ 115 µM) | MIC [5, 18]: 37.5 µg/mL (≈ 115 µM) | MIC ([5]; strain Collins, after 48 hours): 37.5 µg/mL (≈ 115 µM) | MIC ([5]; strain Fix, after 48 hours): 37.5 µg/mL (≈ 115 µM) | MIC ([5]; strain Frazier, after 48 hours): 37.5 µg/mL (≈ 115 µM) | MIC ([5]; strain Fulcher, after 48 hours): 37.5 µg/mL (≈ 115 µM) | MIC ([5]; strain Gay, after 48 hours): 37.5 µg/mL (≈ 115 µM) | MIC ([5]; strain Hons, after 48 hours): 37.5 µg/mL (≈ 115 µM) | MIC ([5]; strain Johnson, after 48 hours): 37.5 µg/mL (≈ 115 µM) | MIC [5, 19]: 37.5 µg/mL (≈ 115 µM) | MIC [5, 20]: 37.5 µg/mL (≈ 115 µM) | MIC ([5]; strain Lehtman, after 48 hours): 37.5 µg/mL (≈ 115 µM) | MIC ([5]; strain Lusk, after 48 hours): 37.5 µg/mL (≈ 115 µM) | MIC ([5]; strain Merkel, after 48 hours): 37.5 µg/mL (≈ 115 µM) | MIC ([5]; strain Newcomb, after 48 hours): 17.5 µg/mL (≈ 53.7 µM) | MIC ([5]; strain Sherod, after 48 hours): 37.5 µg/mL (≈ 115 µM) | MIC [5, 21]: 37.5 µg/mL (≈ 115 µM) | MIC ([5]; strain Sparks, after 48 hours): 37.5 µg/mL (≈ 115 µM) | MIC ([5]; strain Tyner, after 48 hours): 37.5 µg/mL (≈ 115 µM)
